Test results taken from US8846710B2, “Method of preferentially inducing the biosynthesis of interferon” (3M Innovative Properties Company, priority 2005, dated 2014).
Where two headings read alike, the source gives them in different places.

What was measured:
interferon (α) (IFN-α) = experiment: Cytokine induction in human cells: IFN-α secreted by PBMC into culture media (ELISA); type: cell-based; details: for Maximal Response IFN / Minimum Effective Concentration IFN / minimal effective concentration: human PBMC; for Maximal Response IFN / Minimum Effective Concentration IFN: median where tested in more than one experiment; for minimal effective concentration / Maximal Response (pg/mL) IFN: Table 10; for minimal effective concentration: lowest tested concentration inducing IFN-α over usually 20 pg/mL, median where more than one experiment, read-out: Minimum Effective Concentration (μM) IFN; for Maximal Response (pg/mL) IFN: maximal response in dose response curve, * = below experimental background level, median
How it was run: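 IFN-α secreted by density-gradient-isolated PBMC (final 2×10^6 cells/mL) was quantified by ELISA after 18–24 h compound exposure at 37 °C, typically 30-0.014 μM in 3-fold steps with ≤1% DMSO. Readings corrected for background and reference-compound variability; lowest concentration above usually 20 pg/mL reported, plus maximal response (pg/mL).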

[1] = tested on: tumor necrosis factor (α) (TNF-α); experiment: Cytokine induction in human cells: TNF-α secreted by PBMC into culture media (ORIGEN M-Series immunoassay); type: cell-based; design: key to Maximal Response (pg/mL) TNF / Maximal Response TNF: If any negative values result from background subtraction, the reading is reported as “*”, and is noted as not reliably detectable; details: for Minimum Effective Concentration TNF / Maximal Response TNF / minimal effective concentration: human PBMC; for Minimum Effective Concentration TNF: median where tested in more than one experiment; for Maximal Response TNF / Maximal Response (pg/mL) TNF: median; for minimal effective concentration: lowest tested concentration inducing TNF-α over usually 40 pg/mL, median where more than one experiment, read-out: Minimum Effective Concentration (μM) TNF; for Maximal Response (pg/mL) TNF: maximal response in dose response curve
How it was run: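 Secreted TNF-α (pg/mL) was quantified by ORIGEN M-Series immunoassay after 18 to 24 hours culture at 37° C of human PBMC (2×10^6 cells/mL final) with test compound (usually 30-0.014 μM, 3-fold series, DMSO ≤1%). Values were corrected for DMSO or experimental background and a reference-compound ratio, giving a minimum effective concentration.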

[2] = Table 11, * = TNF below experimental background of 40 pg/mL
[3] = Table 10, * = below experimental background level
[4] = Table 12, * = below the experimental background of 40 pg/mL

Row | Structure (SMILES) | Maximal Response IFN (interferon (α) (IFN-α); Table 11) [pg/mL] | Minimum Effective Concentration IFN (interferon (α) (IFN-α); Table 11) [µM] | Minimum Effective Concentration TNF ([1]; Table 11) [µM] | Maximal Response TNF [1, 2] | minimal effective concentration (interferon (α) (IFN-α)) [µM] | minimal effective concentration ([1]; Table 10) [µM] | Maximal Response (pg/mL) TNF [1, 3] | other results
1 | CC(C)(CNS(C)(=O)=O)Cn1c(CCO)nc2c(N)nc3ccccc3c21 [Example 131] | 8361 | 0.37 | >30 | * |  |  |  | 
2 | COCCc1nc2c(N)nc3cc(-c4ccncc4)ccc3c2n1CCCN1CCCC1=O [Analog 40] |  |  |  |  | 0.37 | 3.33 | 943 pg/mL | Maximal Response (pg/mL) IFN (interferon (α) (IFN-α)): 1179 pg/mL
3 | CC(C)(CN)Cn1c(CCO)nc2c(N)nc3ccccc3c21 [Example 129] | 2702 | 0.37 | 30 | 85 pg/mL |  |  |  | 
4 | CCCNC(=O)NCCCCn1c(CCC)nc2c(N)nc3cc(-c4cccnc4)ccc3c21 [Analog 30] |  |  |  |  | 0.37 | 0.37 | 5284 pg/mL | Maximal Response (pg/mL) IFN (interferon (α) (IFN-α)): 531 pg/mL
5 | Cc1nc2c(N)nc3ccccc3c2n1CCCCNC(=O)N1CCOCC1 [Analog 53] | 1538 | 0.12 | 10 | 1400 pg/mL |  |  |  | 
6 | CS(=O)(=O)NCCCCn1c(CCO)nc2c(N)nc3cccnc3c21 [Example 145, N-{4-{4-Amino-2-(2-hydroxyethyl)-1H-imidazo[4,5-c][1,5]naphthyridin-1-yl]butyl}methanesulfonamide] |  |  |  |  |  |  |  | Maximal Response IFN (interferon (α) (IFN-α); Table 12): 3008 pg/mL; Maximal Response TNF [1, 4]: 7 pg/mL
7 | Cc1nc2c(N)nc3ccccc3c2n1CCCNC(=O)C(C)C [Analog 123] | 3011 | 1.11 | 10 | 405 pg/mL |  |  |  | 
8 | CCOCc1nc2c(N)nc3cc(-c4cccnc4)ccc3c2n1CCCCNC(=O)C(C)C [Analog 37] |  |  |  |  | 0.12 | 1.11 | 728 pg/mL | Maximal Response (pg/mL) IFN (interferon (α) (IFN-α)): 1194 pg/mL
9 | COCCc1nc2c(N)nc3ccccc3c2n1CCCNS(C)(=O)=O [Analog 62] | 3995 | 0.014 | 1.11 | 954 pg/mL |  |  |  | 
10 | CC(C)(Cn1c(CO)nc2c(N)nc3cccnc3c21)NC(=O)C1CCCCC1 [Example 143, N-[2-(4-Amino-2-hydroxymethyl-1H-imidazo[4,5-c][1,5]naphthyridin-1-yl)-1,1-dimethylethyl]cyclohexanecarboxamide] |  |  |  |  |  |  |  | Maximal Response IFN (interferon (α) (IFN-α); Table 12): 1467 pg/mL; Maximal Response TNF [1, 4]: 798 pg/mL
11 | Nc1nc2cc(-c3cccnc3)ccc2c2c1nc(CCO)n2CCCN1CCCC1=O [Example 160] |  |  |  |  | 30 | >30 | * | Maximal Response (pg/mL) IFN (interferon (α) (IFN-α)): 109 pg/mL
12 | COCc1nc2c(N)nc3cc(-c4cccnc4)ccc3c2n1CC(C)(C)O [Analog 11] |  |  |  |  | 0.37 | 1.11 | 3445 pg/mL | Maximal Response (pg/mL) IFN (interferon (α) (IFN-α)): 829 pg/mL
13 | CCc1nc2c(N)nc3ccccc3c2n1CCCCNS(C)(=O)=O [Analog 49] | 2712 | 0.04 | 3.33 | 679 pg/mL |  |  |  | 
14 | CC(C)(Cn1c(CO)nc2c(N)nc3cccnc3c21)NS(C)(=O)=O [Example 144, N-[2-(4-Amino-2-hydroxymethyl-1H-imidazo[4,5-c][1,5]naphthyridin-1-yl)-1,1-dimethylethyl]methanesulfonamide] |  |  |  |  |  |  |  | Maximal Response IFN (interferon (α) (IFN-α); Table 12): 1914 pg/mL; Maximal Response TNF [1, 4]: 170 pg/mL
15 | CCCc1nc2c(N)nc3ccccc3c2n1CCCCNS(C)(=O)=O [Analog 50] | 2184 | 0.12 | 1.11 | 850 pg/mL |  |  |  | 
16 | CS(=O)(=O)NCCCCCCCCn1c(CCO)nc2c(N)nc3ccccc3c21 [Example 119] | 8361 | 0.04 | 3.33 | 693 pg/mL |  |  |  | 
17 | CCCc1nc2c(N)nc3cc(-c4cccnc4)ccc3c2n1CCCCNC(=O)NC1CCCC1 [Analog 34] |  |  |  |  | 0.014 | 0.37 | 9019 pg/mL | Maximal Response (pg/mL) IFN (interferon (α) (IFN-α)): 649 pg/mL

Row | Structure (SMILES) | Maximal Response IFN (interferon (α) (IFN-α); Table 11) [pg/mL] | Minimum Effective Concentration IFN (interferon (α) (IFN-α); Table 11) [µM] | Minimum Effective Concentration TNF ([1]; Table 11) [µM] | Maximal Response TNF [1, 2] | minimal effective concentration (interferon (α) (IFN-α)) [µM] | minimal effective concentration ([1]; Table 10) [µM] | Maximal Response (pg/mL) TNF [1, 3] | other results
18 | CCOCc1nc2c(N)nc3cc(-c4cncc(CO)c4)ccc3c2n1CC(C)(C)O [Analog 14] |  |  |  |  | 0.014 | 0.12 | 18284 pg/mL | Maximal Response (pg/mL) IFN (interferon (α) (IFN-α)): 6308 pg/mL
19 | CC(C)(O)Cn1c(CO)nc2c(N)nc3cc(-c4cccc(O)c4)ccc3c21 [Example 168] |  |  |  |  | 0.37 | 10 |  | 
20 | Cc1nc2c(N)nc3cccnc3c2n1CC(C)(C)F [Analog 131, 1-(2-fluoro-2-methylpropyl)-2-methyl-1H-imidazo[4,5-c][1,5]naphthyridin-4-amine] |  |  |  |  |  |  |  | Maximal Response IFN (interferon (α) (IFN-α); Table 12): 2120 pg/mL; Maximal Response TNF [1, 4]: 1679 pg/mL
21 | CCOCc1nc2c(N)nc3cc(-c4ccccc4)ccc3c2n1CCCN1CCCC1=O [Analog 22] |  |  |  |  | 0.37 | 1.11 | 62 pg/mL | Maximal Response (pg/mL) IFN (interferon (α) (IFN-α)): 1665 pg/mL
22 | COCCc1nc2c(N)nc3ccccc3c2n1CCCCNS(=O)(=O)c1ccc(F)cc1 [Analog 113] | 6032 | 0.014 | 0.04 | 3786 pg/mL |  |  |  | 
23 | CCOCc1nc2c(N)nc3cc(-c4cncc(CO)c4)ccc3c2n1CC1CCCCC1 [Analog 45] |  |  |  |  | 0.014 | 1.11 | 2865 pg/mL | Maximal Response (pg/mL) IFN (interferon (α) (IFN-α)): 1062 pg/mL
24 | COCCc1nc2c(N)nc3ccccc3c2n1CC(C)(C)CNC(=O)Nc1ccccc1 [Analog 92] | 570 | 0.014 | 0.04 | 6449 pg/mL |  |  |  | 
25 | Nc1nc2ccccc2c2c1nc(CCO)n2CCCNC(=O)c1ccccc1 [Example 132] | 8361 | 0.37 | >30 | * |  |  |  | 
26 | CC(C)(O)Cn1c(CO)nc2c(N)nc3cc(-c4cccnc4)ccc3c21 [Example 163] |  |  |  |  | 0.37 | 10 | 51 pg/mL | minimal effective concentration ([1]; Table 9): >30 µM; Maximal Response (pg/mL) TNF ([1]; Table 9, * = below experimental background level of 40 pg/mL): *
27 | Nc1nc2ccccc2c2c1nc(CCO)n2CCCCNC(=O)N1CCOCC1 [Example 115] | 8361 | 1.11 | >30 | * |  |  |  | 
28 | CCOCc1nc2c(N)nc3ccccc3c2n1CCCNS(C)(=O)=O [Analog 61] | 1338 | 0.37 | 10 | 463 pg/mL |  |  |  | 
29 | NCCCn1c(CCO)nc2c(N)nc3ccccc3c21 [Example 120] | 5636 | 3.33 | >30 | * |  |  |  | 
30 | COCCc1nc2c(N)nc3ccccc3c2n1CCCNC(=O)c1ccccc1 [Analog 102] | 1504 | 0.014 | 1.11 | 3080 pg/mL |  |  |  | 
31 | COCCc1nc2c(N)nc3ccccc3c2n1CCCCCS(C)(=O)=O [Analog 76] | 2695 | 0.014 | 1.11 | 6169 pg/mL |  |  |  | 
32 | COCCc1nc2c(N)nc3ccccc3c2n1CCCCNC(=O)c1cnc2ccccc2c1 [Analog 115] | 7545 | 0.014 | 0.04 | 9340 pg/mL |  |  |  | 
33 | CCc1nc2c(N)nc3ccccc3c2n1CC(C)(C)CNC(=O)Nc1ccccc1 [Analog 90] | 922 | 0.014 | 0.12 | 2098 pg/mL |  |  |  | 
34 | COCc1nc2c(N)nc3cc(-c4cncc(CO)c4)ccc3c2n1CC(C)(C)O [Analog 13] |  |  |  |  | 0.12 | 3.33 | 8000 pg/mL | Maximal Response (pg/mL) IFN (interferon (α) (IFN-α)): 1771 pg/mL
